Laboratory results reported in US10294202B2, “Pyrrolidinones as herbicides” (FMC Corporation, priority 2013, dated 2019).

Assays:
barnyardgrass [1] = assay: Test B flooded paddy test; type: in vivo, Echinochloa crus-galli; conditions: Flood, scale of 0 to 100 where 0 is no effect and 100 is complete control
Outline: (§1)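 In-water application to pots flooded 3 cm deep, plants at 2-leaf stage. Held in greenhouse 13–15 days at constant flood depth. Scored 0–100 by eye against controls.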

ryegrass, Italian = assay: Test A pre-/postemergence herbicide test; type: in vivo, Lolium multiflorum; conditions: for Plant response rating, Ryegrass, Italian: 0 to 100 scale
Outline: (§2)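 Greenhouse pot test with pre- and postemergence application of surfactant-containing solvent formulations. Postemergence plants were 2–10 cm, one- to two-leaf stage. Response scored visually after ~10 days, 0 (no effect) to 100 (complete control).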

rice = assay: Test B flooded paddy test; type: in vivo, Oryza sativa; conditions: Flood, scale of 0 to 100 where 0 is no effect and 100 is complete control
Outline: as §1

giant foxtail = assay: Test A pre-/postemergence herbicide test; type: in vivo, Setaria faberii
Outline: as §2

galium = assay: Test A postemergence herbicide test; type: in vivo, Galium aparine
Outline: (§3)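 Blackgrass and galium grown in pots of loam soil–sand blend, treated postemergence at 2–10 cm height, one- to two-leaf stage. Plants kept in greenhouse ~10 days, then visually rated for injury against untreated controls on a 0–100 scale (0 no effect, 100 complete control).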

pigweed = assay: Test A pre-/postemergence herbicide test; type: in vivo, Amaranthus retroflexus
Outline: as §2

corn = assay: Test A pre-/postemergence herbicide test; type: in vivo, Zea mays
Outline: as §2

kochia = assay: Test A pre-/postemergence herbicide test; type: in vivo, Kochia scoparia; conditions: for Plant response rating, Kochia: 0 to 100 scale
Outline: as §2

wheat = assay: Test A pre-/postemergence herbicide test; type: in vivo, Triticum aestivum
Outline: as §2

sedge, umbrella = assay: Test B flooded paddy test; type: in vivo, Cyperus difformis; conditions: Flood, scale of 0 to 100 where 0 is no effect and 100 is complete control
Outline: as §1

blackgrass = assay: Test A postemergence herbicide test; type: in vivo, Alopecurus myosuroides
Outline: as §3

ragweed = assay: Test A pre-/postemergence herbicide test; type: in vivo, Ambrosia elatior; conditions: for Plant response rating, Ragweed: 0 to 100 scale
Outline: as §2

barnyardgrass [2] = assay: Test A pre-/postemergence herbicide test; type: in vivo, Echinochloa crus-galli
Outline: as §2

ducksalad = assay: Test B flooded paddy test; type: in vivo, Heteranthera limosa; conditions: Flood, scale of 0 to 100 where 0 is no effect and 100 is complete control
Outline: as §1

morningglory = assay: Test A pre-/postemergence herbicide test; type: in vivo, Ipomoea spp.
Outline: as §2

velvetleaf = assay: Test A pre-/postemergence herbicide test; type: in vivo, Abutilon theophrasti
Outline: as §2

crabgrass, large = assay: Test A pre-/postemergence herbicide test; type: in vivo, Digitaria sanguinalis
Outline: as §2

[3] = 125 g ai/ha, visual rating, 0 no effect, 100 complete control, approximately 10 days, preemergence
[4] = Postemergence, 125 g ai/ha, 0 no effect, 100 complete control
[5] = 125 g ai/ha, visual rating, 0 to 100 scale, 0 no effect, 100 complete control, approximately 10 days, preemergence
[6] = Postemergence, 125 g ai/ha, 0 to 100 scale, 0 no effect, 100 complete control
[7] = preemergence, 500 g ai/ha, 0 to 100 scale
[8] = 125 g ai/ha, 0 to 100 scale, 0 no effect, 100 complete control
[9] = preemergence, 500 g ai/ha, 0 to 100 scale (0 no effect, 100 complete control)
[10] = Postemergence, 500 g ai/ha, 0 to 100 scale (0 no effect, 100 complete control)
[11] = Preemergence, 125 g ai/ha, visual rating on 0 to 100 scale (0 no effect, 100 complete control)
[12] = Postemergence, 125 g ai/ha, 0 to 100 scale, 0 is no effect, 100 is complete control
[13] = Preemergence, 125 g ai/ha, 0 to 100 scale where 0 is no effect and 100 is complete control
[14] = preemergence, 500 g ai/ha, 0 to 100 scale, 0 is no effect and 100 is complete control

## Cc1ccc(C2CNC(=O)C2C(=O)Nc2ccccc2Cl)cc1F (racemic) [Compound 148]
Barnyardgrass [1]; 500 g ai/ha
  Plant response rating, Barnyardgrass: 40
ryegrass, Italian; [3]
  Plant response rating, Ryegrass, Italian: 0
ryegrass, Italian; [4]
  Plant response rating, Ryegrass, Italian: 0
ryegrass, Italian; Postemergence, 500 g ai/ha
  Ryegrass, Italian plant response rating (0 to 100 scale, 0 is no effect, 100 is complete control): 0
ryegrass, Italian; preemergence, 500 g ai/ha
  Plant response rating, Ryegrass, Italian: 0
rice; 500 g ai/ha
  Plant response rating, Rice: 0
Giant foxtail; [5]
  Plant response rating, Foxtail, Giant: 40
Giant foxtail; [6]
  Plant response rating, Foxtail, Giant: 20
Giant foxtail; Postemergence, 500 g ai/ha
  Foxtail, Giant plant response rating (0 to 100 scale, 0 is no effect, 100 is complete control): 30
Giant foxtail; [7]
  Plant response rating, Foxtail, Giant: 90
galium; [8]
  Plant response rating, Galium: 0
galium; 500 g ai/ha
  Galium plant response rating (0 to 100 scale, 0 is no effect, 100 is complete control): 40
pigweed; [5]
  Plant response rating, Pigweed: 0
pigweed; [6]
  Plant response rating, Pigweed: 0
pigweed; Postemergence, 500 g ai/ha
  Pigweed plant response rating (0 to 100 scale, 0 is no effect, 100 is complete control): 0
pigweed; [7]
  Plant response rating, Pigweed: 0
corn; [6]
  Plant response rating, Corn: 0
corn; Postemergence, 500 g ai/ha
  Corn plant response rating (0 to 100 scale, 0 is no effect, 100 is complete control): 0
kochia; [3]
  Plant response rating, Kochia: 30
kochia; [4]
  Plant response rating, Kochia: 0
kochia; Postemergence, 500 g ai/ha
  Kochia plant response rating (0 to 100 scale, 0 is no effect, 100 is complete control): 0
kochia; preemergence, 500 g ai/ha
  Plant response rating, Kochia: 30
wheat; [6]
  Plant response rating, Wheat: 0
wheat; Postemergence, 500 g ai/ha
  Wheat plant response rating (0 to 100 scale, 0 is no effect, 100 is complete control): 0
sedge, umbrella; 500 g ai/ha
  Plant response rating, Sedge, Umbrella: 0
blackgrass; [8]
  Plant response rating, Blackgrass: 0
blackgrass; 500 g ai/ha
  Blackgrass plant response rating (0 to 100 scale, 0 is no effect, 100 is complete control): 0
ragweed; [3]
  Plant response rating, Ragweed: 0
ragweed; [4]
  Plant response rating, Ragweed: 0
ragweed; Postemergence, 500 g ai/ha
  Ragweed plant response rating (0 to 100 scale, 0 is no effect, 100 is complete control): 0
ragweed; preemergence, 500 g ai/ha
  Plant response rating, Ragweed: 0
Barnyardgrass [2]; [5]
  Plant response rating, Barnyardgrass: 30
Barnyardgrass [2]; [6]
  Plant response rating, Barnyardgrass: 50
Barnyardgrass [2]; Postemergence, 500 g ai/ha
  Barnyardgrass plant response rating (0 to 100 scale, 0 is no effect, 100 is complete control): 90
Barnyardgrass [2]; [9]
  Plant response rating, Barnyardgrass: 90
ducksalad; 500 g ai/ha
  Plant response rating, Ducksalad: 100

## O=C1NCC(c2ccc(Cl)nc2)C1C(=O)Nc1ccccc1C(F)(F)F (stereo not shown) [Compound 42]
Barnyardgrass [1]; 250 g ai/ha
  Plant response rating, Barnyardgrass: 0
morningglory; [6]
  Plant response rating, Morningglory: 0
morningglory; [10]
  Plant response rating, Morningglory: 0
rice; 250 g ai/ha
  Plant response rating, Rice: 0
Giant foxtail; [6]
  Plant response rating, Foxtail, Giant: 0
Giant foxtail; [10]
  Plant response rating, Foxtail, Giant: 20
Giant foxtail; [11]
  Foxtail, Giant plant response rating: 20
Giant foxtail; [7]
  Plant response rating, Foxtail, Giant: 80
pigweed; [6]
  Plant response rating, Pigweed: 0
pigweed; [10]
  Plant response rating, Pigweed: 0
pigweed; [11]
  Pigweed plant response rating: 0
pigweed; [7]
  Plant response rating, Pigweed: 30
corn; [6]
  Plant response rating, Corn: 0
corn; [10]
  Plant response rating, Corn: 0
corn; [11]
  Corn plant response rating: 0
corn; [7]
  Plant response rating, Corn: 0
velvetleaf; [6]
  Plant response rating, Velvetleaf: 30
velvetleaf; [10]
  Plant response rating, Velvetleaf: 50
velvetleaf; [11]
  Velvetleaf plant response rating: 0
velvetleaf; [7]
  Plant response rating, Velvetleaf: 0
wheat; [6]
  Plant response rating, Wheat: 0
wheat; [10]
  Plant response rating, Wheat: 0
wheat; [11]
  Wheat plant response rating: 0
wheat; [7]
  Plant response rating, Wheat: 0
sedge, umbrella; 250 g ai/ha
  Plant response rating, Sedge, Umbrella: 0
crabgrass, large; [6]
  Plant response rating, Crabgrass, Large: 0
crabgrass, large; [10]
  Plant response rating, Crabgrass, Large: 70
crabgrass, large; [11]
  Crabgrass, Large plant response rating: 80
crabgrass, large; [7]
  Plant response rating, Crabgrass, Large: 90
Barnyardgrass [2]; [6]
  Plant response rating, Barnyardgrass: 0
Barnyardgrass [2]; [10]
  Plant response rating, Barnyardgrass: 40
Barnyardgrass [2]; [11]
  Barnyardgrass plant response rating: 0
Barnyardgrass [2]; [9]
  Plant response rating, Barnyardgrass: 60
ducksalad; 250 g ai/ha
  Plant response rating, Ducksalad: 60

## O=C1NCC(c2ccc(OC(F)(F)F)cc2)C1C(=O)Nc1cccc(F)c1F (racemic) [Compound 257]
Barnyardgrass [1]; 250 g ai/ha
  Plant response rating, Barnyardgrass: 0
morningglory; [12]
  Plant response rating, Morningglory: 0
morningglory; [10]
  Plant response rating, Morningglory: 0
morningglory; [13]
  Plant response rating, Morningglory: 0
morningglory; [14]
  Plant response rating, Morningglory: 0
rice; 250 g ai/ha
  Plant response rating, Rice: 15
Giant foxtail; [12]
  Plant response rating, Foxtail, Giant: 80
Giant foxtail; [10]
  Plant response rating, Foxtail, Giant: 90
Giant foxtail; [13]
  Plant response rating, Foxtail, Giant: 80
Giant foxtail; [14]
  Plant response rating, Foxtail, Giant: 90
pigweed; [12]
  Plant response rating, Pigweed: 0
pigweed; [10]
  Plant response rating, Pigweed: 0
pigweed; [13]
  Plant response rating, Pigweed: 0
pigweed; [14]
  Plant response rating, Pigweed: 0
corn; [12]
  Plant response rating, Corn: 0
corn; [10]
  Plant response rating, Corn: 20
corn; [13]
  Plant response rating, Corn: 0
corn; [14]
  Plant response rating, Corn: 0
velvetleaf; [12]
  Plant response rating, Velvetleaf: 0
velvetleaf; [10]
  Plant response rating, Velvetleaf: 0
velvetleaf; [13]
  Plant response rating, Velvetleaf: 0
velvetleaf; [14]
  Plant response rating, Velvetleaf: 0
wheat; [12]
  Plant response rating, Wheat: 20
wheat; [10]
  Plant response rating, Wheat: 30
wheat; [13]
  Plant response rating, Wheat: 0
wheat; [14]
  Plant response rating, Wheat: 0
sedge, umbrella; 250 g ai/ha
  Plant response rating, Sedge, Umbrella: 0
crabgrass, large; [12]
  Plant response rating, Crabgrass, Large: 90
crabgrass, large; [10]
  Plant response rating, Crabgrass, Large: 90
crabgrass, large; [13]
  Plant response rating, Crabgrass, Large: 90
crabgrass, large; [14]
  Plant response rating, Crabgrass, Large: 90
Barnyardgrass [2]; [12]
  Plant response rating, Barnyardgrass: 50
Barnyardgrass [2]; [10]
  Plant response rating, Barnyardgrass: 80
Barnyardgrass [2]; [13]
  Plant response rating, Barnyardgrass: 40
Barnyardgrass [2]; [14]
  Plant response rating, Barnyardgrass: 80
ducksalad; 250 g ai/ha
  Plant response rating, Ducksalad: 70
